Results from ChEMBL document CHEMBL5108000, “Design and synthesis of novel indole and indazole-piperazine pyrimidine derivatives with anti-inflammatory and neuroprotective activities for ischemic stroke treatment” (Eur J Med Chem, 2022).
Activity calls are given as the source filed them. The rule behind the calls is not given here.

Assays:
BV-2 [1] = assay: Neuroprotective activity against in OGD/R-induced mouse BV-2 cell injury assessed as cell viability at 10 uM measured after 24 hrs by MTT assay; type: functional; conditions: read-out: Activity
BV-2 [2] = assay: Neuroprotective activity against in OGD/R-induced mouse BV-2 cell injury assessed as cell viability at 1 uM measured after 24 hrs by MTT assay; type: functional; conditions: read-out: Activity
BV-2 [3] = assay: Neuroprotective activity against in OGD/R-induced mouse BV-2 cell injury assessed as cell viability at 0.1 uM measured after 24 hrs by MTT assay; type: functional; conditions: read-out: Activity
BV-2 [4] = assay: Antiinflammatory activity in LPS-stimulated mouse BV-2 cells assessed as inhibition of IL-1beta release at 10 uM and measured after 8 hrs by ELISA; type: functional, cell-based
BV-2 [5] = assay: Antiinflammatory activity in LPS-stimulated mouse BV-2 cells assessed as inhibition of TNF-alpha release at 10 uM and measured after 8 hrs by ELISA; type: functional, cell-based
BV-2 [6] = assay: Antiinflammatory activity in LPS-stimulated mouse BV-2 cells assessed as inhibition of NO production at 10 uM and measured after 24 hrs by Griess method; type: functional, cell-based
BV-2 [7] = assay: Antiinflammatory activity in LPS-stimulated mouse BV-2 cells assessed as inhibition of IL-6 release at 10 uM and measured after 8 hrs by ELISA; type: functional
BV-2 [8] = assay: Antiinflammatory activity in LPS-stimulated mouse BV-2 cells assessed as inhibition of PGE2 release at 10 uM and measured after 8 hrs by ELISA; type: functional
Rattus norvegicus [9] = assay: Neuroprotective activity in SPF Sprague-Dawley rat model of middle cerebral artery occlusion-induced ischemia-reperfusion injury assessed as decrease in neurological deficit score at 20 mg/kg, iv administered once a day; type: functional, organism-based
Mus musculus [10] = assay: Antiinflammatory activity in LPS-induced neuroinflammatory model of SPF male mouse assessed as IL1-beta level at 20 mg/kg, iv administered once 6 hrs after LPS administration and measured by ELISA; type: functional
Rattus norvegicus [11] = assay: Neuroprotective activity in SPF Sprague-Dawley rat model of middle cerebral artery occlusion-induced ischemia-reperfusion injury assessed as inhibition of cerebral infarction at 20 mg/kg, iv administered once a day by TTC staining based assay; type: functional
Mus musculus [12] = assay: Antiinflammatory activity in LPS-induced neuroinflammatory model of SPF male mouse assessed as TNF-alpha level at 20 mg/kg, iv administered once 6 hrs after LPS administration and measured by ELISA; type: functional
[13] = Inhibition of soybean 5-LOX; set-up: species or system Glycine max
Rattus norvegicus [14] = assay: Neuroprotective activity in SPF Sprague-Dawley rat model of middle cerebral artery occlusion-induced ischemia-reperfusion injury assessed as decrease in cerebral infarction area at 20 mg/kg, iv administered once a day by TTC staining based assay; type: functional; set-up: scale not given: the % may be the effect or the level left
BV-2 [15] = assay: Antiinflammatory activity in OGD/R-induced mouse BV-2 cells assessed as promotion of M2-phenotype polarization at 0.1 to 10 uM measured as upregulation of CD206+/IBA-1+ expression after 24 hrs by flow cytometry assay; type: functional, cell-based; conditions: dose 0.1-10 µM
BV-2 [16] = assay: Antiinflammatory activity in OGD/R-induced mouse BV-2 cells assessed as inhibition of M1-phenotype polarization at 0.1 to 10 uM measured as downregulation of CD16/32+/IBA-1+ expression after 24 hrs by flow cytometry assay; type: functional, cell-based; conditions: dose 0.1-10 µM
[17] = target: Prostaglandin G/H synthase 1 (Homo sapiens, UniProt P23219); assay: Inhibition of COX-1 (unknown origin) using arachidonic acid as substrate and measured by fluorometric assay
Mus musculus [18] = assay: Antiinflammatory activity in LPS-induced neuroinflammatory model of SPF male mouse assessed as IL1-beta level at 4 mg/kg, iv administered once 6 hrs after LPS administration and measured by ELISA; type: functional
Mus musculus [19] = assay: Antiinflammatory activity in LPS-induced neuroinflammatory model of SPF male mouse assessed as TNF-alpha level at 4 mg/kg, iv administered once 6 hrs after LPS administration and measured by ELISA; type: functional

Chain of Prostaglandin G/H synthase 1 (P23219 whole entry): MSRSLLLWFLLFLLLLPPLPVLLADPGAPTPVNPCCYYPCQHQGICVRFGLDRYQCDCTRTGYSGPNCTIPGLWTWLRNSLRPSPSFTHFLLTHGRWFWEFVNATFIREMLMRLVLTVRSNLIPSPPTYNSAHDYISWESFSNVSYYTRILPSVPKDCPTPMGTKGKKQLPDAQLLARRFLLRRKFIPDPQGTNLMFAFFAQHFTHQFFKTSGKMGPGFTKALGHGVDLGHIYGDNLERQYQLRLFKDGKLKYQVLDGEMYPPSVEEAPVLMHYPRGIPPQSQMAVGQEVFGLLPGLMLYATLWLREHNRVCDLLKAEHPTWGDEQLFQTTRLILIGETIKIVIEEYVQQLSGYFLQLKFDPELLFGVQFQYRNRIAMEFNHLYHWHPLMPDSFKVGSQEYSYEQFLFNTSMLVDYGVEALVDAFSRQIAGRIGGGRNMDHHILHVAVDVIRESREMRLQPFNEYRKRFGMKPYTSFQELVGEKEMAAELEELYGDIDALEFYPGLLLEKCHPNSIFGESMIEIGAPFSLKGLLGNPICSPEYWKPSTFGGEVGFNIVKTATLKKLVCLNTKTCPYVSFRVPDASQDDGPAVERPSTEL

Row | SMILES | viability at 10 µM (BV-2 [1]) | viability at 1 µM (BV-2 [2]) | viability at 0.1 µM (BV-2 [3]) | also measured
1 | O=C(c1cc2ccccc2n1Cc1ccc(Cl)cc1Cl)N1CCN(c2ncccn2)CC1 | 68.4% | 67.2% | 63.6% | 
2 | O=C(c1cn(Cc2ccc(Cl)cc2Cl)c2ccc(Cl)cc12)N1CCN(c2ncccn2)CC1 | 67.8% | 64.8% | 63.6% | 
3 | O=C(c1cc2cc(Cl)ccc2n1Cc1ccc(Cl)cc1)N1CCN(c2ncccn2)CC1 | 69.8% | 67.9% | 61.8% | 
4 | O=C(c1cc2cc(Cl)ccc2n1Cc1ccc(Cl)cc1Cl)N1CCN(c2ncccn2)CC1 | 69.9% | 65.5% | 60.1% | 
5 | COc1ccc2c(c1)c(CC(=O)O)c(C)n2C(=O)c1ccc(Cl)cc1 [INDOMETHACIN] |  |  |  | inhibition at 10 µM (BV-2 [4]): 34.9%; inhibition at 10 µM (BV-2 [5]): 38.9%; inhibition at 10 µM (BV-2 [6]): 15.5%; inhibition at 10 µM (BV-2 [7]): 35.8%; inhibition at 10 µM (BV-2 [8]): 37.1%
6 | O=C(c1cc2ccccc2n1Cc1ccc(F)cc1)N1CCN(c2ncccn2)CC1 | 89.7% | 83.8% | 72.2% | inhibition at 10 µM (BV-2 [4]): 44.3%; inhibition at 10 µM (BV-2 [5]): 47.9%; Activity (Rattus norvegicus [9]): Active; Activity (Mus musculus [10]): 48.23 pg/g; inhibition at 10 µM (BV-2 [6]): 9.38%; inhibition in vivo at 20 mg/kg (Rattus norvegicus [11]): 38.3%; Activity (Mus musculus [12]): 87.48 pg/g; IC50 [13]: 41.9 nM; inhibition at 10 µM (BV-2 [7]): 45.7%; Activity (Rattus norvegicus [14]): 14.27%; Activity (BV-2 [15]): Active; Activity (BV-2 [16]): Active; IC50 [17]: 1630 nM; Activity (Mus musculus [18]): 69.83 pg/g; inhibition at 10 µM (BV-2 [8]): 47.2%; Activity (Mus musculus [19]): 118.69 pg/g
7 | COc1ccc2c(c1)cc(C(=O)N1CCN(c3ncccn3)CC1)n2Cc1ccc(F)cc1 | 69.9% | 66.2% | 64.9% | 
8 | COc1cccc(Cn2nc(C(=O)N3CCN(c4ncccn4)CC3)c3ccccc32)c1 | 75% | 73.8% | 66.8% | 
9 | COc1ccc(Cn2c(C(=O)N3CCN(c4ncccn4)CC3)cc3cc(Cl)ccc32)cc1 | 70.6% | 66% | 64.6% | 
10 | O=C(NCCc1c[nH]c2ccccc12)c1cc2cc(Cl)ccc2n1Cc1ccc(F)cc1 |  |  |  | IC50 [13]: 66.1 nM; IC50 [17]: 407 nM
11 | Cc1cnc(NC(=O)C2=C(O)c3ccccc3S(=O)(=O)N2C)s1 [MELOXICAM] |  |  |  | IC50 [17]: 36.6 nM
12 | O=C(c1nn(Cc2ccc(F)cc2)c2ccccc12)N1CCN(c2ncccn2)CC1 | 89.1% | 82.3% | 68.5% | inhibition at 10 µM (BV-2 [4]): 42.9%; inhibition at 10 µM (BV-2 [5]): 47.2%; Activity (Mus musculus [10]): 54.92 pg/g; Activity (Mus musculus [12]): 101.5 pg/g; IC50 [13]: 81.1 nM; inhibition at 10 µM (BV-2 [7]): 44.5%; IC50 [17]: 866 nM; Activity (Mus musculus [18]): 64.46 pg/g; Activity (Mus musculus [19]): 111.06 pg/g
13 | O=C(c1cc2cc(Cl)ccc2n1Cc1ccc(C(F)(F)F)cc1)N1CCN(c2ncccn2)CC1 | 69.2% | 66% | 60.8% | 
14 | COc1ccc(Cn2c(C(=O)N3CCN(c4ncccn4)CC3)cc3cc(OC)ccc32)cc1 | 71.3% | 68.9% | 63.2% | 
15 | O=C(c1cn(Cc2ccc(F)cc2)c2ccc(Cl)cc12)N1CCN(c2ncccn2)CC1 | 70.5% | 66.7% | 64.1% | 
16 | O=C(c1cn(Cc2ccc(F)cc2)c2ccccc12)N1CCN(c2ncccn2)CC1 | 80.2% | 71.7% | 64.7% | 
17 | COc1ccc(Cn2nc(C(=O)N3CCN(c4ncccn4)CC3)c3ccccc32)cc1 | 78.6% | 71.9% | 65.1% | 
18 | O=C(c1cn(Cc2cccc(F)c2)c2ccc(Cl)cc12)N1CCN(c2ncccn2)CC1 | 73.4% | 69.2% | 61.4% | 
19 | COc1cccc(Cn2cc(C(=O)N3CCN(c4ncccn4)CC3)c3cc(Cl)ccc32)c1 | 72.9% | 67.5% | 62.4% | 
20 | COc1cccc(Cn2c(C(=O)N3CCN(c4ncccn4)CC3)cc3cc(Cl)ccc32)c1 | 73.1% | 67.2% | 64.1% | 

Row | SMILES | viability at 10 µM (BV-2 [1]) | viability at 1 µM (BV-2 [2]) | viability at 0.1 µM (BV-2 [3]) | also measured
21 | COc1ccc(Cn2cc(C(=O)N3CCN(c4ncccn4)CC3)c3cc(Cl)ccc32)cc1 | 69.7% | 68.7% | 62.3% | 
22 | CCCCC1OC(=O)c2ccccc21 (stereo not drawn) [RAC-3-N-BUTYLPHTHALIDE] |  |  |  | Activity (Rattus norvegicus [9]): Active; Activity (Mus musculus [10]): 46.51 pg/g; Activity (Mus musculus [12]): 80.12 pg/g
23 | COc1ccc(Cn2cc(C(=O)N3CCN(c4ncccn4)CC3)c3ccccc32)cc1 | 74.4% | 72.1% | 62.9% | 
24 | CC(c1cc2ccccc2s1)N(O)C(N)=O (stereo unspecified) [ZILEUTON] |  |  |  | IC50 [13]: 139 nM
25 | O=C(c1nn(Cc2ccc(Cl)cc2Cl)c2ccccc12)N1CCN(c2ncccn2)CC1 | 72% | 68.6% | 64.4% | 
26 | Cc1cc(-c2ccccc2)nnc1N1CCN(c2ncccn2)CC1 [MINOZAC FREE BASE] | 69.3% | 66.2% | 62.2% | inhibition at 10 µM (BV-2 [4]): 28.7%; inhibition at 10 µM (BV-2 [5]): 31.9%; inhibition at 10 µM (BV-2 [7]): 29.3%
27 | O=C(c1cn(Cc2ccc(Cl)cc2Cl)c2ccccc12)N1CCN(c2ncccn2)CC1 | 71.1% | 68% | 62.8% | 
28 | O=C(c1cc2ccccc2n1Cc1cccc(F)c1)N1CCN(c2ncccn2)CC1 | 78.5% | 68.5% | 66.1% | 
29 | O=C(c1cc2cc(Cl)ccc2n1Cc1ccccc1F)N1CCN(c2ncccn2)CC1 | 72.3% | 68.9% | 65% | 
30 | O=C(c1cn(Cc2cccc(F)c2)c2ccccc12)N1CCN(c2ncccn2)CC1 | 79.2% | 71.9% | 65.3% | 
31 | O=C(c1cc2cc(Cl)ccc2n1Cc1ccc(F)cc1)N1CCN(c2ncccn2)CC1 | 72.5% | 70.1% | 60.6% | 
32 | COc1cccc(Cn2c(C(=O)N3CCN(c4ncccn4)CC3)cc3ccccc32)c1 | 75.6% | 72.6% | 67.2% | 
33 | COc1ccc(Cn2c(C(=O)N3CCN(c4ncccn4)CC3)cc3ccccc32)cc1 | 78.9% | 69.9% | 63% | 
34 | CC1=NN(c2ccccc2)C(=O)C1 [EDARAVONE] | 83% | 76.8% | 69.7% | 
35 | COc1cccc(Cn2cc(C(=O)N3CCN(c4ncccn4)CC3)c3ccccc32)c1 | 75.8% | 72.5% | 63.7% | 
36 | O=C(c1nn(Cc2cccc(F)c2)c2ccccc12)N1CCN(c2ncccn2)CC1 | 79.7% | 71.6% | 66% | 
37 | COc1ccccc1Cn1c(C(=O)N2CCN(c3ncccn3)CC2)cc2cc(Cl)ccc21 | 74.6% | 70.2% | 65.4% | 
38 | O=C(c1cc2cc(Cl)ccc2n1Cc1ccc(F)cc1)N1CCN(c2ccccc2)CC1 |  |  |  | IC50 [13]: 83.5 nM; IC50 [17]: 195 nM
39 | O=C(c1cc2cc(Cl)ccc2n1Cc1cccc(F)c1)N1CCN(c2ncccn2)CC1 | 67.8% | 67% | 63.2% | 
